Measurements published in patent US7029918B2, “Water-soluble derivatives of lipophilic drugs” (Roche Diagnostics Operations, Inc., priority 2002, dated 2006).
“And” between values parts separate entries of the source, which are not always exact repeats. Identical values can stand only once.

How the values were obtained:
[1] = cited from earlier work
[2] = Heat stress stability of urine standard solutions, ABUSCREEN ONLINE Benzodiazepines assay; conditions: for stability in urine by ONLINE assay: up to 4 weeks, 4° C. or 45° C., pH 6.4 or 7.4, 100 to 200 ng/mL
Experimental: (§1) Urine standard solutions were prepared using pooled, filtered, normal human urine containing 0.09 percent sodium azide. […] Each of the drug stock solutions was added analytically to the assigned aliquot of urine pool. Final drug concentrations in the solutions were determined by GC-MS analyses performed at ELSOHLY LABORATORIES (Oxford, MS).
(§2) The stability of the above standard solutions were evaluated using three different analytical technologies: (1) GCIMS (Gas Chromatography/Mass Spectrometry) analysis, (2) ABUSCREEN ONLINE Benzodiazepines Immunoassay, and (3) HPLC (High Pressure Liquid Chromatography) analysis.
The heat stress stability study of the water-soluble derivative 2 was evaluated using ABUSCREEN ONLINE Benzodiazepines assay. […] (in neutral and acidic negative urine pools, 2 concentrations for each urinary pH).

[3] = system: antibody of ABUSCREEN ONLINE Benzodiazepines assay; conditions: ONLINE immunoassay
Source text: ABUSCREEN ONLINE reagents and Calibration Pack were obtained from ROCHE DIAGNOSTICS CORPORATION, INC. […] ABUSCREEN ONLINE Benzodiazepines assay was run either on a ROCHE MIRA analyzer in a semi-quantitative mode, or using a ROCHE COBAS INTEGRA 700 analyzer in a semi-quantitative mode, according to the I manufacturer's instructions.

[4] = Heat stress stability of urine standard solutions, GC/MS quantification; format: physicochemical; conditions: for change of concentration in urine: 45° C. and 55° C.
Experimental: as §1, §2
The standard solutions were stored at various temperatures, including 4° C., 45° C. and 55° C., and tested at different time intervals.

[5] = in water; 'it is believed'
[6] = Experimental: Water-soluble derivative 2 was spiked in certified drug-free human urine 100 ng/mL) and the resulting solution was divided into two portions: one was stored at 4° C. and the other stressed at 45° C. After three months, both solutions were analyzed for the concentration of water-soluble derivative 2 by the following procedure. A volume (between 2.5 to 10 mL) of the urine solutions was passed through an affinity column packed with anti-benzodiazepines antiserum-coated latex beads (0.8 μm). After it was washed with a 50 mM, pH 6.1 MES (4-morpholineethane […]) buffer, the column was eluted with methanol. The methanol eluant was then evaporated and the residue reconstituted in 404 μL of MES buffer. […] The column was eluted with a gradient generated between a 50 mM, pH 6.8 ammonium acetate buffer and acetonitrile (Table C).
[7] = system: antibody (competition with benzodiazepine-BSA conjugate 7); experiment: Immunochromatographic assay of benzodiazepines (nitrocellulose test strip, competitive); format: binding
Experimental: In the absence of lipophilic drug in a sample being analyzed, the drug conjugate can bind to the antibody, and this binding can be measured. When a the lipophilic drug is present in the sample, the drug competes with the drug conjugate for binding to the antibody. Antibody that is bound to the liphophilic drug no longer contributes to the binding measurement. Lipophilic drug content is determined relative to the values obtained for known concentrations of the standard compound (Adler, F. L. J. Immunol. 1971, 106(6):1684–1685. See also Bates, M. Amer. Acad. Forensic Sci. 1991, 37(6):1000).
The benzodiazepine-BSA conjugate was prepared in a similar manner as described in Example 6, but treating with BSA rather than BTG. The product was prepared and stored in 100 mM potassium phosphate as 10 mg/mL solution with 0.05% sodium azide as preservative Example 9-Immunochromatographic assay of benzodiazepines using water-soluble derivative 2 as calibrator The immunochromatographic assay was conducted using a nitrocellulose-based test strip as described in detail in U.S. Pat. No. 5,770,458. Mylar backed large pore size nitrocellulose (8–12 micron) was cut into pieces of 15 cm in length and 5 cm in width. A solution of the benzodiazepine-BSA conjugate 7 (about 5 mg/mL) and anti-BSA monoclonal antibody (about 2 mg/mL), both in 50 mM potassium phosphate buffer pH 7.5, were loaded onto IVEK CORP. (North Springfield, Vt.) […] 2000™ system. The solutions were dispensed at the rate 1 μl/cm onto nitrocellulose at a distance of 2 cm and 1 cm, respectively, from the 15 cm side. The nitrocellulose segments were allowed to dry for about 30 min. at 37° C., and then were blocked with polyvinyl alcohol (PVA, m.w. 13,000–23,000) solution in 20 mM TRIS, pH 8, for 30 min. at room temperature. The segments were then rinsed in water and dried.
The same nitrocellulose as described above in this example was used as a separate membrane for microparticles (top membrane). The construction of the two-membrane strip configuration was carried out as described in detail in U.S. Pat. No. 5,770,458. In brief, the top membrane was blocked and washed using the same protocol as the main membrane. The top membrane containing the appropriate amount of microparticles was laminated to the main membrane with ADHESIVE […] INC. (Glen Rock, Pa.) adhesive mylar and the segment was then cut into 5 mm wide strips. The sample pad and sink pad were placed respectively at the beginning and terminal ends of the strips. Cellulose from BIORAD LABORATORIES (Hercules, Calif.) (gel blotter) was used for both the sample receiving pads and the sink pads. The calibration curve was obtained by adding solutions containing predetermined amounts of drug in urine to the sample receiving pad or by dipping the sample receiving pad of the membrane strip in the solutions. Various predetermined concentrations of water-soluble derivative 2 were used to prepare the standards in urine. The signal strength is determined as follows: 2.5 to 3.0=dark blue, 1.5 to 2.0-medium blue, 1.0=light blue, 0.5=barely perceivable color and 0=colorless. When the strip read colorless, a complete inhibition is achieved and the sample is indicated to contain 200 ng/mL of the drug used to prepare the “standards”.

[8] = urine pH 7.4, higher-concentration standard
[9] = urine pH 7.4, lower-concentration standard
[10] = urine pH 6.4, higher-concentration standard
[11] = urine pH 6.4, lower-concentration standard
[12] = urine, scale 2.5 to 3.0 dark blue, 1.5 to 2.0 medium blue, 1.0 light blue, 0.5 barely perceivable, 0 colorless

CCN(CC)CCN1C(=O)CN=C(c2ccccc2F)c2cc(Cl)ccc21 [Fluazepam]
solubility in water [1]: only slight solubility in water

O=C1CN=C(c2ccccc2)c2cc(Cl)ccc2N1 [Nordiazepam, reference compound]
ONLINE assay concentration, 4° C., Day 0 [2, 8]: 271 ng/mL
ONLINE assay concentration, 4° C., Week 2 [2, 8]: 272 ng/mL
ONLINE assay concentration, 4° C., Week 4 [2, 8]: 252 ng/mL
ONLINE assay concentration, 45° C., Day 0 [2, 8]: 271 ng/mL
ONLINE assay concentration, 4° C., Day 0 [2, 9]: 139 ng/mL
ONLINE assay concentration, 4° C., Week 2 [2, 9]: 140 ng/mL
ONLINE assay concentration, 4° C., Week 4 [2, 9]: 134 ng/mL
ONLINE assay concentration, 45° C., Day 0 [2, 9]: 139 ng/mL

O=C1CN=C(c2ccccc2F)c2cc(Cl)ccc2N1CCNS(=O)(=O)O [Water-soluble derivative 2, 1-(2-Sulfamidoethyl)-2′-fluoro-7-chloro-1,4-benzodiazepine]
cross-reactivity to both Oxazepam and Nordiazepam [3]: approximately 70%
GC/MS concentration, Day 0 ([4]; human urine standard solution, starting concentration): Day 0 = 171 ng/mL
GC/MS value at 5 months, 4° C. ([4]; human urine, 5 months, 4° C., Day 0 = 171 ng/mL): 147 ng/mL
GC/MS value at 5 months, 45° C. ([4]; human urine, 5 months, 45° C., Day 0 = 171 ng/mL): 150 ng/mL
GC/MS value at 5 months, 55° C. ([4]; human urine, 5 months, 55° C., Day 0 = 171 ng/mL): 145 ng/mL
GC/MS concentration after storage at 4° C. ([4]; human urine, two weeks, 4° C.): 191 ng/mL
GC/MS concentration after storage at 45° C. ([4]; human urine, two weeks, 45° C.): 178 ng/mL
GC/MS concentration after storage at 55° C. ([4]; human urine, two weeks, 55° C.): 185 ng/mL
change of concentration in urine ([4]; two weeks, 4° C.): stable at all temperatures
change of concentration in urine ([4]; two weeks, 4° C., listed as water-soluble benzodiazepine reference standard 2): does not change significantly
aqueous solubility [5]: more than 2 mg/mL
relative stability of the stressed sample (single extraction and HPLC runs) ([6]; human urine, three months, 45° C. vs 4° C., duplicate runs): 96% and 106%
relative stability of the stressed sample (average) ([6]; human urine, three months, area count at 45° C. divided by that at 4° C., average of duplicates): 101%
stability at 45° C. relative to 4° C. ([6]; urine, storage as long as 3 months): no decrease in stability
stability in urine by ONLINE assay [2]: stable for the evaluated time and temperatures
stability in urine by ONLINE assay ([2]; listed as water-soluble benzodiazepine reference standard 2): does not change significantly
ONLINE assay concentration, 4° C., Day 0 [2, 10]: 191 ng/mL
ONLINE assay concentration, 4° C., Week 2 [2, 10]: 191 ng/mL
ONLINE assay concentration, 4° C., Week 4 [2, 10]: 193 ng/mL
ONLINE assay concentration, 45° C., Day 0 [2, 10]: 191 ng/mL
ONLINE assay concentration, 45° C., Week 2 [2, 10]: 200 ng/mL
ONLINE assay concentration, 45° C., Week 4 [2, 10]: 209 ng/mL
ONLINE assay concentration, 4° C., Day 0 [2, 11]: 99 ng/mL
ONLINE assay concentration, 4° C., Week 2 [2, 11]: 97 ng/mL
ONLINE assay concentration, 4° C., Week 4 [2, 11]: 106 ng/mL
ONLINE assay concentration, 45° C., Day 0 [2, 11]: 99 ng/mL
ONLINE assay concentration, 45° C., Week 2 [2, 11]: 101 ng/mL
ONLINE assay concentration, 45° C., Week 4 [2, 11]: 109 ng/mL
ONLINE assay concentration, 4° C., Day 0 [2, 8]: 188 ng/mL
ONLINE assay concentration, 4° C., Week 2 [2, 8]: 183 ng/mL
ONLINE assay concentration, 4° C., Week 4 [2, 8]: 189 ng/mL
ONLINE assay concentration, 45° C., Day 0 [2, 8]: 188 ng/mL
ONLINE assay concentration, 45° C., Week 2 [2, 8]: 179 ng/mL
ONLINE assay concentration, 45° C., Week 4 [2, 8]: 192 ng/mL
ONLINE assay concentration, 4° C., Day 0 [2, 9]: 102 ng/mL
ONLINE assay concentration, 4° C., Week 2 [2, 9]: 92 ng/mL
ONLINE assay concentration, 4° C., Week 4 [2, 9]: 99 ng/mL
ONLINE assay concentration, 45° C., Day 0 [2, 9]: 102 ng/mL
ONLINE assay concentration, 45° C., Week 2 [2, 9]: 95 ng/mL
ONLINE assay concentration, 45° C., Week 4 [2, 9]: 98 ng/mL
cross-reactivity to both Oxazepam and Nordiazepam ([7]; immunochromatographic assay): approximately 70%
signal strength at 50 ng/mL standard [7, 12]: 2.50 and 2.75
signal strength at 100 ng/mL standard [7, 12]: 2.00
signal strength at 200 ng/mL standard [7, 12]: 0
signal strength at 400 ng/mL standard [7, 12]: 0
